In patent US20110021455A1, “STERILISED SUCRALFATE GEL” (PIERRE FABRE DERMO-COSMETIQUE, priority 2008, published 2011):

Assays:
[1] = Sterilisation by gamma rays; format: physicochemical; conditions: in the form of powder and gel; composition yellows
Source text: In fact, after various tests, it seemed that sucralfate, both in the form of powder and gel, is unstable during sterilisation by gamma rays since the composition yellows.

[2] = Sterilisation with ethylene oxide; format: physicochemical; conditions: requires a long and costly desorption phase

- stability during sterilisation by gamma rays [1]: unstable
- adsorption of ethylene oxide on sucralfate during sterilisation [2]: substantial adsorption
Substance: sucralfate
